Test results published in patent US20220213060A1, “Crystal Form of Quinazolinone Compound and Preparation Method Therefor” (Luoxin Healthcare Science and Technology Development …, priority 2019, published 2022).
pIC50: −log10 of the molar value. Each block holds one compound with its values, some of them ahead of it.

Key:
[1] = Beagle dog absorption test (pharmacokinetics); assay type: in vivo, Beagle dogs; settings: male and female Beagle dogs, oral, 0.3 mg/kg, single
Procedure: Beagle dogs were given the crystal form A of the compound represented by formula (I) by single or multiple oral administration and single intravenous injection respectively, with 6 dogs in each group, half male and half female. The single oral doses were 0.3, land 3 mg/kg respectively; the multiple doses were 1 mg/kg, once a day for 7 consecutive days; the single intravenous dose was 0.3 mg/kg. According to the drug plasma concentration-time curve, the pharmacokinetic parameters were calculated, the results are shown in Table 15. The vehicle for drug preparation in group 1 was 5% HP-beta-CD, 5% solutol, pH=8 aqueous solution, the vehicles for groups 2, 3, 4 were 0.5% MC, 0.2% Tween80 aqueous solution.

PI3Kα = molecular target: T1, PI3Kα (Homo sapiens, UniProt P42336); assay: In vitro enzymatic activity test (ADP-Glo lipid kinase), PI3Kα wild type; assay type: biochemical; settings: Table 17, in vitro screening; read-out: PI3Kα IC50
T1 construct: purchased Millipore 14-602-K
Procedure: (§1) The lipid kinase reaction was carried out in a suitable substrate and under ATP conditions, then the activity of the kinase was detected by ADP-Glo™ kit in two steps. Step 1: the kinase reaction was terminated, in which the residual ATP was completely removed and only ADP was retained; step 2: kinase detection reagent was added to convert ADP to ATP, accompanied by fluorescein/luciferase reaction. Finally, the fluorescence value output was converted into kinase activity.
(§2) Experimental Materials and Equipment:
(§3) 2) Kit: ADP-Glo™ lipid kinase and PIP2:3PS kit (Promega #V1792)
(§4) The reagent kit contains: 1 mM PIP2:3PS, 10× lipid dilution buffer, 1 M magnesium chloride, 10 mM ATP, 10 mM ADP, ADP-Glo reagent, detection buffer and detection substrate.
(§5) 3) Reaction plate: OptiPlate-384, white and transparent (PerkinElmer #6007299)
(§6) 1) 10× reaction buffer: 500 mM HEPES, pH 7.5, 500 mM NaCl, […]; BSA: 10% stock solution, self-made
(§7) 2) Final test system conditions: 1× reaction system: 50 mM of HEPES, 50 mM of NaCl, 3 mM of MgCl2, 0.01% BSA (freshly prepared on the day of experiment), 1% DMSO (v/v)+/−compound
(§8) 3) Reaction system: 3 μL of mixture of enzyme and substrate (1:1)+2 μL of ATP/MgCl2 mixture+5 μL of ADP-Glo reagent+10 μL of detection reagent.
(§9) The specific experimental operations were as follows: […]
(§10) (16) Fluorescence values were measured on the Envision instrument.

MCF7 cell line = assay: In vitro cell activity test: ELISA of Akt phosphorylation in MCF7 cells; assay type: cell-based; settings: Homo sapiens; inhibition of Akt phosphorylation, insulin-stimulated MCF7 cells
Source text: ELISA method was used to measure the inhibition level of the compounds to be tested on the phosphorylation of Akt, which is the downstream protein of PI3K in signal pathway in MCF7 cell line to reflect the cell activity of the compounds.
Cell culture medium: complete cell culture medium (RPMI 1640+10% serum+1% L-glutamine+1% double antibody)
Serum-free medium (without serum, RPMI 1640+1% L-glutamine+1% double antibody)
Specific operation steps were as follows:
(1) MCF7 cells (ATCC® HTB-22™) were inoculated into a 96-well plate with 100 μL (2.5 10^4 cells per well) of complete cell culture medium, and incubated at 37° C. and 5% CO2 for 24 hours.
(2) The complete cell culture medium was replaced with 100 μL serum-free medium, and incubated overnight in starvation
(3) The compound (the initial concentration of the compound was 1 mM, which was subjected to a three-fold dilution in 10 concentrations. Then, each concentration of the compound was diluted 100-fold with serum-free medium), and 25 μL of the diluted compound was added to the well plate containing cells.
(4) The cells were incubated at 37° C. and 5% CO2 for 2 h
(5) 10 μg/mL insulin (Sigma #I9278-5 mL) was used to stimulate the cells in the well plate, incubated for 30 min, and then centrifuged at 1000 rpm for 5 min at room temperature.
(6) 250 μL 1× balanced salt solution (Invitrogen, #14065-056, 4° C., containing 1 mM/L Na3VO4) was added to each well to wash the cells once
(7) 100 μL of lysis buffer (tris(hydroxymethyl)aminomethane hydrochloride, Invitrogen, #15567-1000 ml) was added to each well and shaken at 4° C. for 60 min, and then centrifuged at 4000 rpm for 10 min at 4° C.
(8) The subsequent steps were performed according to the ELISA kit (TGR BioSciences #EKT002) instructions.

PI3Kγ = molecular target: T2, PI3Kγ (Homo sapiens, UniProt P48736); assay: In vitro enzymatic activity test (ADP-Glo lipid kinase), PI3Kγ; assay type: biochemical; settings: Table 17, in vitro screening
T2 construct: purchased Millipore 14-558-K
Procedure: as §1, §2, §3, §4, §5, §6, §7, §8, §9, §10

PI3Kβ = molecular target: T3, PI3Kβ (Homo sapiens, UniProt P42338); assay: In vitro enzymatic activity test (ADP-Glo lipid kinase), PI3Kβ; assay type: biochemical; settings: Table 17, in vitro screening
T3 construct: purchased Promega V1751
Procedure: as §1, §2, §3, §4, §5, §6, §7, §8, §9, §10

PI3Kδ = molecular target: T4, PI3Kδ (Homo sapiens, UniProt O00329); assay: In vitro enzymatic activity test (ADP-Glo lipid kinase), PI3Kδ; assay type: biochemical; settings: Table 17, in vitro screening
T4 construct: purchased Millipore 14-604-K
Procedure: as §1, §2, §3, §4, §5, §6, §7, §8, §9, §10

[2] = Hygroscopicity by dynamic vapor sorption (DVS); assay type: physicochemical; settings: 25° C. and 80% RH
Procedure: 1.4 Dynamic Vapor Sorption (DVS) Method of the Present Disclosure
Instrument model: SMS DVS Advantage dynamic vapor sorption instrument
Detection conditions: 10-20 mg of sample was placed in a DVS sample tray for testing.
Detailed DVS parameters were as follows:
Equilibrium: dm/dt=0.01%/min: (shortest: 10 min, longest: 180 min)
Drying: drying at 0% RH for 120 min
RH (%) test gradient: 10%
RH (%) test gradient range: 0%-90%-0%
Hygroscopicity evaluation is classified as follows:
20 mg of the crystal form A of the compound represented by formula (I) was placed in the DVS sample tray for testing.

[3] = tested on: HR+/HER2+ human breast cancer BT-474 (PIK3CA amplified); assay: In vivo pharmacodynamic study, BT-474 nude mouse subcutaneous xenograft tumor model; set-up: species or system BALB/c nude mice
Procedure: The phenotype of human BT-474 breast cancer cells is HR+/HER2+, and it has PIK3CA amplification. This experiment evaluated the efficacy of the crystal form A of the compound represented by formula (I) in a human breast cancer xenograft tumor model, using BYL-719 as a reference.
Cell culture: Human breast cancer BT474 cells were cultured in vitro in a single layer, the culture condition was Hybri-Care medium with 10% fetal bovine serum and the cells were incubated in 5% CO2 at 37° C. Digestion and passage treatment with trypsin-EDTA was carried out twice a week. When the cell saturation was 80%-90% and the number reached the requirement, the cells were collected, counted and inoculated.
Animals: BALB/c nude mice, female, 6-8 weeks old, weighing 18-20 g. A total of 85 animals were required, and provided by Shanghai Bikai experimental animal Co., Ltd.
Tumor inoculation: Estrogen tablets (0.36 mg/tablet) were subcutaneously inoculated on the left back of each mouse, three days later, 0.2 mL (10×10^6 cells) of BT474 cells (with matrigel in a volume ratio of 1:1) were subcutaneously inoculated on the right back of each mouse, group administration was started when the average tumor volume reached 150 mm^3−200 mm^3.
Tumor-bearing mice in each administration group had good tolerance to the tested compounds.

[4] = 40 mg/kg, oral once a day for 20 days

T4 sequence (O00329 whole entry): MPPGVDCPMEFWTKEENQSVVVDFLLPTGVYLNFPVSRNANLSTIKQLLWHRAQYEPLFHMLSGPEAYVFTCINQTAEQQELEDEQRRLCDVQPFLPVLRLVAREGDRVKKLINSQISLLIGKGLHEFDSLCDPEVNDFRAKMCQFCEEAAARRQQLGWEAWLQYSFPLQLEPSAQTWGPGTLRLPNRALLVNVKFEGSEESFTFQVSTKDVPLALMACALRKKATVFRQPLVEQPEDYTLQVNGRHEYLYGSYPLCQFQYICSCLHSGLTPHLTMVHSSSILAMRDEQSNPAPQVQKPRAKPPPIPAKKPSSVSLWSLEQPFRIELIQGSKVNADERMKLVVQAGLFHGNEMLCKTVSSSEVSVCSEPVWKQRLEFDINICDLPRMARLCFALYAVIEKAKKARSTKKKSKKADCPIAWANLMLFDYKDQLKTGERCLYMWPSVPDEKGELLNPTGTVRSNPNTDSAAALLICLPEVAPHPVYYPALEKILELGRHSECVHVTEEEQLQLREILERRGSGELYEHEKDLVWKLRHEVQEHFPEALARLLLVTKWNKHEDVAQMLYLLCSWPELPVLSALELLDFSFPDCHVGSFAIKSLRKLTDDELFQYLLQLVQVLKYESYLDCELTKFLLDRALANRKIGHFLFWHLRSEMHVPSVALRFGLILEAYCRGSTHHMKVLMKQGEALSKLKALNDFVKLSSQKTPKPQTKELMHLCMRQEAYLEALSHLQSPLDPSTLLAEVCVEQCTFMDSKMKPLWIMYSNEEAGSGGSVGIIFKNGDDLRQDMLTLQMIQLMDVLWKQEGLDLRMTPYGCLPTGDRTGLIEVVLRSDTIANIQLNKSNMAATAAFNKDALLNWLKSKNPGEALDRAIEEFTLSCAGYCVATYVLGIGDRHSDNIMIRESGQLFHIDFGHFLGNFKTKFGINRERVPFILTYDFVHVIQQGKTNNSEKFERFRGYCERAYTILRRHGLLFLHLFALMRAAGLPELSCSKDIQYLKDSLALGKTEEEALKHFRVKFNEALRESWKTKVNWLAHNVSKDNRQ
T4 sequence (P27986 whole entry partner): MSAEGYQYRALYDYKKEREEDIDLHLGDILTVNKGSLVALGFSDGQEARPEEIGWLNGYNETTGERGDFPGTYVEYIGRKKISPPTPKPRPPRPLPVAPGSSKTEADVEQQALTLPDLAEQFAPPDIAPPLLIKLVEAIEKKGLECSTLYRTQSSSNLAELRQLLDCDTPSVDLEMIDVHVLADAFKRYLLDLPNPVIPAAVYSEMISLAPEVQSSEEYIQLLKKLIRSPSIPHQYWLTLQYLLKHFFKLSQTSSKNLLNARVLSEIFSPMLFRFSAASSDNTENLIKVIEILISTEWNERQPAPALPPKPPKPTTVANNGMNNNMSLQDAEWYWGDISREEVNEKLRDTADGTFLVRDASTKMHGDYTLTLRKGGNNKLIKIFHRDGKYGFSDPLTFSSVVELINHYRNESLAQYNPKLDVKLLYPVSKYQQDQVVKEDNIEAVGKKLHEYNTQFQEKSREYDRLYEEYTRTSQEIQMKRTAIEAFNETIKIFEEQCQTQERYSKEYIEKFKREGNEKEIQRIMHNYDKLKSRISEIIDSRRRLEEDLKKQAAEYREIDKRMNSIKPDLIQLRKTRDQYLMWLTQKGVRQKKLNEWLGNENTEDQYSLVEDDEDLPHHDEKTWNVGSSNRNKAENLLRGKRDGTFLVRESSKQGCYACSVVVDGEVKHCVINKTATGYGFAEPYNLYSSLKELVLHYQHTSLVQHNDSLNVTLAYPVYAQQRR
T2 sequence (P48736 whole entry): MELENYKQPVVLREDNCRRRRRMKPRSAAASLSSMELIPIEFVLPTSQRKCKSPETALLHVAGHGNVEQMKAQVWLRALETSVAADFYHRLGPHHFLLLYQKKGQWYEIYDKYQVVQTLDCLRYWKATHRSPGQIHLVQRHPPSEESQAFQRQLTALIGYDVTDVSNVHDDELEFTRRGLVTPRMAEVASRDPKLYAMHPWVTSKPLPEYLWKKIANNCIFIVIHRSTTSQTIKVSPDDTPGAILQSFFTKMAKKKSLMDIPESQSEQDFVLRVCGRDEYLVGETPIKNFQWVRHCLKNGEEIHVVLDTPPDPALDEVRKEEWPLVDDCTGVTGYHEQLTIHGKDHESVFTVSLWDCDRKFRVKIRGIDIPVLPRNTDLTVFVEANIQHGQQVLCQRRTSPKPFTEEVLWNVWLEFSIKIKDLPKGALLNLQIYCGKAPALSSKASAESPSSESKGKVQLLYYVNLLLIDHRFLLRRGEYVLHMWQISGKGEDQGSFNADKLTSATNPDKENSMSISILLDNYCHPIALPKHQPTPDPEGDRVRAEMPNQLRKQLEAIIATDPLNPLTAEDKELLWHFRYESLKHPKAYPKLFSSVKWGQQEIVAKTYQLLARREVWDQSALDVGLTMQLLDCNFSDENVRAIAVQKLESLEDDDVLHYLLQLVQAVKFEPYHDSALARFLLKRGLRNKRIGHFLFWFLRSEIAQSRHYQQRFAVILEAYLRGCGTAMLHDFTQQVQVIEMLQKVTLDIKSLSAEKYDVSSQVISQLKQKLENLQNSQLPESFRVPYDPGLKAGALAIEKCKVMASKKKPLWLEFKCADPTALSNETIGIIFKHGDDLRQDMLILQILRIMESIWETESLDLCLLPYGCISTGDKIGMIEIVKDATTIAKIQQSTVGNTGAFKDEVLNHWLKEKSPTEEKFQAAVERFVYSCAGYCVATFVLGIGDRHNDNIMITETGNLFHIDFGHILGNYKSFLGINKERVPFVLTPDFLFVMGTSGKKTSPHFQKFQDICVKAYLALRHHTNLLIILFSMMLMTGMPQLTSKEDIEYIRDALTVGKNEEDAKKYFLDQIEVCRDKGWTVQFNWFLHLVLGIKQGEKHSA
T3 sequence (P42338 whole entry): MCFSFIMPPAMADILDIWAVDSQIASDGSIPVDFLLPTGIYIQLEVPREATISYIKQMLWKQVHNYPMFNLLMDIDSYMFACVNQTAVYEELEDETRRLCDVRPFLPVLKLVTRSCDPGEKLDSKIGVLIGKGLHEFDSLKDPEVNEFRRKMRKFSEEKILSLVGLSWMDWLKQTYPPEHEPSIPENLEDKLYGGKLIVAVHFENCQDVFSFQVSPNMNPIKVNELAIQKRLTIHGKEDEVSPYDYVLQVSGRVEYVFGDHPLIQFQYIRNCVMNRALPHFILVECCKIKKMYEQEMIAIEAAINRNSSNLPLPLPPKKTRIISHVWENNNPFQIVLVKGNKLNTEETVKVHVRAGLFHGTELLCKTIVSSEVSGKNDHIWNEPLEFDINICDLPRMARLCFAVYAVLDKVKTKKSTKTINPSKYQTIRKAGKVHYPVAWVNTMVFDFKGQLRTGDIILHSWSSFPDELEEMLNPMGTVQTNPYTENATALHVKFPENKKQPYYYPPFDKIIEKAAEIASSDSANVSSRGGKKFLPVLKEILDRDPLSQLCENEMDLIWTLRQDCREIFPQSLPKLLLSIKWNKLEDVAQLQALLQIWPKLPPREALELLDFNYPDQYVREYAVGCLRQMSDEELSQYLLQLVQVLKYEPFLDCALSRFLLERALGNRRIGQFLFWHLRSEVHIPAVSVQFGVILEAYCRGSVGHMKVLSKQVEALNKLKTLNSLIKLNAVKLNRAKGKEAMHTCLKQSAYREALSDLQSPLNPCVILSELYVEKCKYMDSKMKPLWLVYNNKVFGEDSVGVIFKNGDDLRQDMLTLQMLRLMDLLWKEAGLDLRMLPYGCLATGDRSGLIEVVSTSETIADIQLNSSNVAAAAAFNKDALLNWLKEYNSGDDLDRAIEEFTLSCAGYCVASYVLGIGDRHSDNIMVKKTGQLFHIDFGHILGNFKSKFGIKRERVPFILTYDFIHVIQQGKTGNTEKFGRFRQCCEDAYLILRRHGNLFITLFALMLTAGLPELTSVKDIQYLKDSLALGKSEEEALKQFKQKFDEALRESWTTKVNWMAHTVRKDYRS
T3 sequence (P27986 whole entry partner): as the sequence (P27986 whole entry partner) above
T1 sequence (P42336 whole entry): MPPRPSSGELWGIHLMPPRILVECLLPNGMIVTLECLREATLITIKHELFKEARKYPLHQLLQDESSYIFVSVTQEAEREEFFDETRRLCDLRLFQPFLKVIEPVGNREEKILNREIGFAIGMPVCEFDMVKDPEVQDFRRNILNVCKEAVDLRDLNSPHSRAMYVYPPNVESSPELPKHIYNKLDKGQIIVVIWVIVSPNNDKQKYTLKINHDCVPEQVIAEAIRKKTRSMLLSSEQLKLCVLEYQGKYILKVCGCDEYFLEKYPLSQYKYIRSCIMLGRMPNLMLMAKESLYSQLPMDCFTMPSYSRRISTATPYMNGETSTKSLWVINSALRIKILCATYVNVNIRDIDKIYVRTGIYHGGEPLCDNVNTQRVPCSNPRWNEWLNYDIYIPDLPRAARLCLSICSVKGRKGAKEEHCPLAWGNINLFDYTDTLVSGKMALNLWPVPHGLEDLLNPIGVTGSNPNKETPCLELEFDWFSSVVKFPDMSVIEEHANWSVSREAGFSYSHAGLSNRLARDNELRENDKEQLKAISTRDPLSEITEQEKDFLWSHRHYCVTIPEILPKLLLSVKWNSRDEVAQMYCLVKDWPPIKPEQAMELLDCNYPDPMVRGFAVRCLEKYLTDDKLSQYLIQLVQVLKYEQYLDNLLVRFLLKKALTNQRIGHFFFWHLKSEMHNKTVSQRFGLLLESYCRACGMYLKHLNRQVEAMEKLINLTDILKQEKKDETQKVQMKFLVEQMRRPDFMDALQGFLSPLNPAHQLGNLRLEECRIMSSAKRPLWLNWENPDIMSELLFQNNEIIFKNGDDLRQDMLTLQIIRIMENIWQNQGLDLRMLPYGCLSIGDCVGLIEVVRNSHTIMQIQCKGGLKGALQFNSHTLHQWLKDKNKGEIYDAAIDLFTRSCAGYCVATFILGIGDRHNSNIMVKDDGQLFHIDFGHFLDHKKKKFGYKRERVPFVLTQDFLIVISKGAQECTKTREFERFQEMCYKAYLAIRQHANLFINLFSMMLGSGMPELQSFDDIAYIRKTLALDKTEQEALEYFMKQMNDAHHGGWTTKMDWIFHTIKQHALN
T1 sequence (P27986 whole entry partner): as the sequence (P27986 whole entry partner) above

Compound: COc1ncc(-c2ccc3ncn(CCN(C)C)c(=O)c3c2)cc1NS(=O)(=O)c1ccc(F)cc1 [R011 (A2)]
pIC50 (MCF7 cell line): 6.64

Compound: CCN(CC)CCn1cnc2ccc(-c3cnc(OC)c(NS(=O)(=O)c4ccc(F)cc4F)c3)cc2c1=O [R012 (A10)]
pIC50 (MCF7 cell line): < 6.00

Compound: Cc1nc(NC(=O)N2CCC[C@H]2C(N)=O)sc1-c1ccnc(C(C)(C)C(F)(F)F)c1 [BYL-719, reference compound]
Anti-tumor effect (in words) ([3]; 40 mg/kg group): significant anti-tumor effects
T/C % [3, 4]: 29.39%
TGI % [3, 4]: 95.31%

More lines, now with the values ahead:

Oral bioavailability (%) [1]: 71.2%
Compound: CNC(=O)[C@H](C)Cn1cnc2ccc(-c3cnc(OC)c(NS(=O)(=O)c4ccc(F)cc4F)c3)cc2c1=O [listing 1 of 2 here]

pIC50 (PI3Kα): 8.76
pIC50 (MCF7 cell line): 7.45
pIC50 (PI3Kγ): 7.70
pIC50 (PI3Kβ): 6.72
pIC50 (PI3Kδ): 7.60
Compound: CNC(=O)[C@H](C)Cn1cnc2ccc(-c3cnc(OC)c(NS(=O)(=O)c4ccc(F)cc4F)c3)cc2c1=O [Compound represented by formula (I)]

Classification for hygroscopicity [2]: hygroscopic
ΔW, hygroscopical weight gain [2]: 2.332%
Compound: CNC(=O)[C@H](C)Cn1cnc2ccc(-c3cnc(OC)c(NS(=O)(=O)c4ccc(F)cc4F)c3)cc2c1=O [listing 2 of 2 here]
